Test results published in PubChem BioAssay AID624129 (Sanford-Burnham Center for Chemical Genomics, 2012).
Active and inactive are the calls of the source. No rule for the calls is given here.

How the values were obtained:
Assay in all cases: potency against CXCR6 with APJ panel – cell-based, beta-arrestin, DiscoveRx, uHTS hits, dose response (AID 624129)
[1] = target: Apelin receptor (Homo sapiens) (UniProt P35414); details: CXCR6 beta-arrestin (DiscoveRx) antagonist cell assay, APJ
[2] = target: Beta-galactosidase (Escherichia coli) (UniProt Q8VNN2); details: CXCR6 beta-arrestin (DiscoveRx) antagonist cell assay, b-galactosidase
[3] = target: C-C chemokine receptor type 6 (Homo sapiens) (UniProt P51684); details: CXCR6 beta-arrestin (DiscoveRx) antagonist cell assay
[4] = target: C-X-C chemokine receptor type 6 (Homo sapiens) (UniProt O00574); details: CXCR6 beta-arrestin (DiscoveRx) antagonist cell assay; for inhibition: CXCR6, run 1, dose range 2, at 80 µM (top of the series)
[5] = dose range 1, mean IC50 across replicates
[6] = CCR6, dose range 1, mean IC50 across replicates
[7] = CXCR6, dose range 1, mean IC50 across replicates

C-X-C chemokine receptor type 6 (Homo sapiens), sequence (O00574 whole entry, looked up): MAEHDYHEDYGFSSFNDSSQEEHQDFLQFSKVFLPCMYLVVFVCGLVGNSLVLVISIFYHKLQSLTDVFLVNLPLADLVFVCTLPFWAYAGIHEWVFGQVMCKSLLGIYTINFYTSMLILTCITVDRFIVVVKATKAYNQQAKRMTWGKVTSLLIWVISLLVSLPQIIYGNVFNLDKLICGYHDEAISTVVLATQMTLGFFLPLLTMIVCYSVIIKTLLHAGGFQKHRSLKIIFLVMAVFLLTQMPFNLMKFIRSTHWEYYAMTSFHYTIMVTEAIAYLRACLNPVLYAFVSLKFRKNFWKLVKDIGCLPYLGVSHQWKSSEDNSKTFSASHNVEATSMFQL
Beta-galactosidase (Escherichia coli), sequence (Q8VNN2 whole entry, looked up): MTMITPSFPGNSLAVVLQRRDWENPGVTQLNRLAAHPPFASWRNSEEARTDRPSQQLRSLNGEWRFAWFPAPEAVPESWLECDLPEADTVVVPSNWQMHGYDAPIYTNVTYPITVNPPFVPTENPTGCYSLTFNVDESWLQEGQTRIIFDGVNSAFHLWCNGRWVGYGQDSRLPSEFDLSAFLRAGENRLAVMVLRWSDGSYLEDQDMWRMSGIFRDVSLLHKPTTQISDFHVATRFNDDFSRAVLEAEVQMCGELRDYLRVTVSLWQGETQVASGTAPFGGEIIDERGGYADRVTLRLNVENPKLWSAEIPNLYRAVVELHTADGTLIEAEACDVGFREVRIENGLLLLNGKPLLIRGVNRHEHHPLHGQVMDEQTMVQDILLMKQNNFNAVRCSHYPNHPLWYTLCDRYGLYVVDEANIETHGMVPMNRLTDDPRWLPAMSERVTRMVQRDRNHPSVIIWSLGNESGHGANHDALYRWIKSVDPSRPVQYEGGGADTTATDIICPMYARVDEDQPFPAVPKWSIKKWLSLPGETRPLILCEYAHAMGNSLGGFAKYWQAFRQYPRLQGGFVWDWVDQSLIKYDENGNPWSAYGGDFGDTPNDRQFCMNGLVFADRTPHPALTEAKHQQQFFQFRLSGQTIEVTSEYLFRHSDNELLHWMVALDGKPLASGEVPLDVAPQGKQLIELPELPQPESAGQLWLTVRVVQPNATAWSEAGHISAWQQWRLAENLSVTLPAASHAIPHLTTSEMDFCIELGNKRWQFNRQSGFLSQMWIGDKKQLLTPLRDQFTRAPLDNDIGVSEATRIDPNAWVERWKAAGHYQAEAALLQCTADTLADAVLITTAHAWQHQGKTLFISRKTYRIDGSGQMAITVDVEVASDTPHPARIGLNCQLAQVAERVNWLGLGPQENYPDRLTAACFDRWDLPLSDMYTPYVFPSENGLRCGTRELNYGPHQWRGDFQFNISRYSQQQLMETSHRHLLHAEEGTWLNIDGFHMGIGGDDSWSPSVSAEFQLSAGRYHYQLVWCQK

Row | SMILES | IC50 [1, 5] [µM] | IC50 ([1]; run 2, dose range 1) [µM] | IC50 ([1]; run 3, dose range 1) [µM] | IC50 ([2]; dose range 1) | IC50 [2, 5] [µM] | IC50 ([3]; CCR6, dose range 1) [µM] | IC50 [3, 6] [µM] | IC50 ([3]; CCR6, run 2, dose range 1) [µM] | IC50 ([4]; CXCR6, dose range 1) | IC50 [4, 7] [µM] | inhibition [4] [%] | IC50 ([4]; CXCR6, run 2, dose range 1) [µM] | IC50 ([1]; dose range 1) [µM] | IC50 ([4]; CXCR6, run 1, dose range 2) [µM] | IC50 ([4]; CXCR6, run 2, dose range 2) [µM]
1 | COc1ccc(-n2c(O)c(/C=N/Nc3nc(C)cc(C)n3)c3ccccc3c2=O)cc1OC | 49.6 | > 80 | 49.6 | > 80 µM (inactive) | > 80 | 31.3 | 29.2 | 27.2 | > 80 µM (inactive) | > 80 | 118 | > 80 |  |  | 
2 | C=C1C(=O)OC2C1CCC(C)=C1C(=O)C3OC3(C)C12 (stereo not drawn) | 10.9 | 11.2 | 10.6 | > 80 µM (inactive) | > 80 | 6.5 | 6.87 | 7.24 | 12.7 µM | 10.3 |  | 9.67 | 10.9 | 10.1 | 8.85
3 | CCn1c(Cl)c(C=O)s/c1=N\S(=O)(=O)c1ccccc1 | 5.99 | 5.55 | 5.57 | > 80 µM (inactive) | > 80 | 3.16 | 3.63 | 4.09 | 4.78 µM | 4.9 |  | 5.14 | 6.85 | 5.1 | 4.58
4 | Cc1cccnc1Nc1nc(-c2ccccn2)cs1 | 1.38 | 1.82 | 1.13 | > 80 µM (inactive) | > 80 | 0.955 | 1.22 | 1.48 | 1.13 µM | 0.904 |  | 0.861 | 1.2 | 0.837 | 0.788
5 | N#CC(C#N)=C1C=CC=CN1/C(=C\c1ccco1)C(=O)c1ccccc1 | 3.9 | 3.2 | 3.71 | > 80 µM (inactive) | > 80 | 2.91 | 2.95 | 2.99 | 3.57 µM | 3.74 |  | 3.64 | 4.79 | 3.95 | 3.79
6 | C/C(=N\NC(=O)C1COc2ccccc2O1)c1ccccn1 (stereo not drawn) | 5.59 | 4.73 | 6.22 | > 80 µM (inactive) | > 80 | 3.22 | 3.87 | 4.51 | inactive | 15.5 |  | 12.6 | 5.83 | 3.86 | 3.74
7 | COc1ccc(Nc2ccc([N+](=O)[O-])c3nonc23)c(OC)c1 | > 80 | > 80 | > 80 | > 80 µM (inactive) | > 80 |  | > 80 | > 80 | > 80 µM (inactive) | > 80 | 4.14 | > 80 |  |  | 
8 | COc1ccc(C)c(-n2c(=O)n(Cc3ccccc3)c(=O)c3[nH]cnc32)c1 | 13.1 | 15.7 | 9.95 | 8.42 µM | 8.42 | 8.5 | 9.2 | 9.91 | inactive | 12.3 |  | 14 | 13.5 | 10.9 | 7.56
9 | NC(=S)N/N=C/c1ncc(C(F)(F)F)cc1Cl | 7.73 | 8.7 | 7.68 | > 80 µM (inactive) | > 80 | 6 | 6.7 | 7.41 | 7.01 µM | 5.44 |  | 6.86 | 6.82 | 3.67 | 4.23

The next lines start with the values.

Row | IC50 [1, 5] [µM] | IC50 ([1]; run 2, dose range 1) [µM] | IC50 ([1]; run 3, dose range 1) [µM] | IC50 ([2]; dose range 1) | IC50 [2, 5] [µM] | IC50 ([3]; CCR6, dose range 1) [µM] | IC50 [3, 6] [µM] | IC50 ([3]; CCR6, run 2, dose range 1) [µM] | IC50 ([4]; CXCR6, dose range 1) | IC50 [4, 7] [µM] | inhibition [4] [%] | IC50 ([4]; CXCR6, run 2, dose range 1) [µM] | IC50 ([1]; dose range 1) [µM] | IC50 ([4]; CXCR6, run 1, dose range 2) [µM] | IC50 ([4]; CXCR6, run 2, dose range 2) [µM] | SMILES
10 | 0.281 | 0.236 | 0.242 | > 80 µM (inactive) | > 80 | 0.29 | 0.271 | 0.251 | 0.476 µM | 0.435 | 113 | 0.395 | 0.364 |  |  | Cc1ccc(C(=O)CNc2ccc(F)cc2)cc1
11 | 26.2 | 24.9 | 27.5 | inactive | 58.9 | 28.9 | 26.3 | 23.7 | inactive | 23.7 | 62 | 21.9 |  |  |  | CC(=O)Nc1ccc(NCC(=O)c2ccccc2)cc1
12 | 21.9 | 21 | 24.6 | > 80 µM (inactive) | > 80 | 11.9 | 12.4 | 13 | inactive | 14.1 | 126 | 12 | 19.9 |  |  | COc1cc2c(cc1OC)C1(CCCC1)CNC2c1cccc([N+](=O)[O-])c1 (stereo not drawn)
13 | 10 | > 80 | > 80 | > 80 µM (inactive) | > 80 | 8.24 | 9.45 | 10.7 | > 80 µM (inactive) | > 80 | -50.3 | > 80 | 10 |  |  | COc1ccc(N2C(=O)CC(Sc3nnnn3-c3ccc(F)cc3)C2=O)cc1 (stereo not drawn)
14 | 6.77 | 7.04 | 7.28 | > 80 µM (inactive) | > 80 | 4.56 | 5.9 | 7.23 | 11.1 µM | 8.58 | 130 | 6.03 | 5.99 |  |  | CCOC(=O)c1c(SCCN2CCCCC2)n(-c2ccccc2)c(=S)n(-c2ccccc2)c1=O
15 | 4.54 | 5.03 | 4.88 | 3.65 µM | 3.65 | 2.72 | 2.47 | 2.23 | 3.59 µM | 2.93 |  | 2.76 | 3.71 | 2.45 | 2.93 | Cc1ccc(CN2C(=O)C(Cc3ccccc3)Nc3ncnc(N4CCN(c5ccccc5)CC4)c32)cc1 (stereo not drawn)
16 | 7.15 | 6.41 | 7.21 | > 80 µM (inactive) | > 80 | 5.88 | 5.71 | 5.55 | 7.4 µM | 8.21 |  | 7.89 | 7.82 | 8.3 | 9.26 | CCS(=O)(=O)c1ncc(Cl)c(C(=O)Nc2ccc(S(=O)(=O)N3CCC(C)CC3)cc2)n1
17 | 27.6 | 24.9 | 38.9 | > 80 µM (inactive) | > 80 | 13.2 | 34.3 | 55.4 | inactive | 18.3 | 56.2 | 17.4 | 19 |  |  | O=C(c1nnsc1S(=O)c1ccc(Cl)cc1)N1CCOCC1 (stereo not drawn)
18 | > 80 | > 80 | > 80 | > 80 µM (inactive) | > 80 | 15.1 | 12.9 | 10.7 | inactive | 18.7 | 58.6 | 15.8 |  |  |  | C=C1CC2(OC1=O)c1ccccc1CCc1ccccc12
19 | 4.62 | 5.92 | > 80 | > 80 µM (inactive) | > 80 | 1.27 | 1.51 | 1.75 | 1.57 µM | 1.48 | 105 | 1.38 | 3.31 |  |  | Cc1ccccc1Oc1cc(-n2ncc(Cl)c(Cl)c2=O)ncn1
20 | 8.26 | 7.57 | 7.54 | > 80 µM (inactive) | > 80 | 5.19 | 5.45 | 5.72 | 5.72 µM | 6.19 |  | 5.95 | 9.66 | 6.35 | 6.77 | C=C1C(=O)C23CCC4C(C)(C(=O)OC)CCCC4(C)C2CCC1(O)C3 (stereo not drawn)
21 | 9.66 | 9.81 | 10.4 | > 80 µM (inactive) | > 80 | 5.35 | 5.73 | 6.11 | 13.9 µM | 8.81 |  | 7.01 | 8.75 | 6.87 | 7.46 | Cc1cccc(C(=O)Nc2ccc(C(=O)/C=C/c3cccnc3)cc2)c1
22 | 2.46 | 2.59 | > 80 | > 80 µM (inactive) | > 80 | 2.07 | 2.25 | 2.44 | 2.76 µM | 2.31 |  | 2.94 | 2.32 | 2.01 | 1.51 | C/C(=N\NC(=O)COc1ccccc1-c1ccccc1)c1ccccn1
